The values that follow are results of earlier work, collected in CN114831954A, “一种左氧氟沙星片” (priority 2022, dated 2022).

For data set [1] the following is noted: background statement.
In data set [2] the test system is Gram-positive and Gram-negative bacteria [革兰氏阳性菌和阴性菌]. The following applies: background statement.
The conditions of data set [3]: in vivo, po.

Regarding `CC1COc2c(N3CCN(C)CC3)c(F)cc3c(=O)c(C(=O)O)cn1c23` (stereo not shown) [氧氟沙星], the biological half-life in data set [1] is on record as approximately 6 h. The antibacterial effect entry in data set [2] (Gram-positive and Gram-negative bacteria) is “对革兰氏阳性菌和阴性菌均有光谱的效果”. In addition, the “concentration dependence of antibacterial effect” value in data set [2] is given as “具有明显的浓度依赖性”. Further, the gastrointestinal adverse reactions result in data set [3] was “有胃肠不良反应”.
